Columns and labels:
Assay type in all cases: in vivo
[1] = tested on: maternally separated mice; experiment: Forced swim test in early-life stress mice; details: early-life stressed mice, 90 mg/kg/day in food (FIG. 41)
Description: (§1) At postnatal day 1, pups were culled to have 6 pups per mother. From postnatal day 1 to 14, unpredictable maternal separation (MS) of a period of 3 hours daily was carried out. Maternal separation was performed at random times (from 8 am to 2 pm) to avoid the habituation of the mother to the procedure. The protocol consisted of removing pups from their mother to another cage at room temperature for a 3 hour period, after which the pups were returned to their original nest. These groups are denoted as early-life stress in the figures. A control group of dam/pups was left undisturbed and is denoted in the figures as normal.
One week after maternal separation mice were separated into two groups. One control group received the standard mouse chow diet (Untreated), while the other group received the ellagitannin punicalagin admixed into the food and designed to deliver a dose of 90 mg/kg/day to the mice. Treatment with the diet began 1 week after the termination of the maternal separation treatment. […]
Animals were considered to be engaged in swimming and mobile if there was a clear displacement of the body. […] Animal behavior was recorded over a 6-minute test period using a camera and a mirror behind the cylinder. The first 2 minutes and the last 4 minutes of the swimming were analyzed separately for mouse swimming activity. […]

[2] = tested on: maternally separated mice; experiment: Dark/light box test in early-life stress (maternal separation) mice; details: 90 mg/kg/day in food (FIG. 39)
Description: as §1
One week after maternal separation mice were separated into two groups. One control group received the standard mouse chow diet (Untreated), while the other group received the ellagitannin punicalagin admixed into the food and designed to deliver a dose of 90 mg/kg/day to the mice. Treatment with the diet began 1 week after the termination of the maternal separation treatment.
The effects of early-life stress on depression, anxiety and cognition were examined utilizing the following behavioral assays which were carried out 166 days after the completion of the maternal separation protocol. Normally raised mice were compared versus maternally separated mice (early-life stress) and maternally separated mice treated with punicalagin. […]

C. elegans strain SJ4103 = experiment: Mitochondrial GFP reporter in muscle of C. elegans strain SJ4103; details: 50 μM from eggs, GFP monitored after one day of adulthood (FIG. 26)
Description: C. elegans strains were cultured at 20° C. on nematode growth media agar plates seeded with HT115 bacteria and containing 50 μM urolithin A or a corresponding concentration of DMSO as a control. […]. The strains used were the SJ4103 (zcIs14[myo-3::GFP(mit)]), which is a stable transgenic line expressing a mitochondrially localized green fluorescent protein (GFP) with a cleavable mitochondrial import signal peptide under the control of the specific body wall muscle promoter myo-3. GFP expression and quantification was carried out according to the protocol previously described (Durieux et al., 2011). Worms were treated with 50 μM urolithin A from eggs, and GFP was monitored after one day of adulthood. Fluorimetric assays were performed using a Victor X4 multilabel plate reader (Perkin-Elmer Life Science). Eighty worms were picked at random (20 worms per well of a black-walled 96-well plate) and each well was read four times and averaged.

[3] = tested on: C57BL/6J mice exposed to chronic unpredictable stress; experiment: Morris water maze in chronically stressed mice; details: 25 mg/kg/d (FIG. 34)
Description: Three weeks before the initiation of the chronic stress protocol mice were separated into four different groups. One group received standard mouse chow diet (Control), while the remaining three groups received varying doses of extract 1011, an extract derived from pomegranate juice. Low dose corresponded to an extract dose of 21 mg/kg/d of gallic acid equivalents of polyphenols (GAE PPE), the medium dose corresponded to an extract dose of 43 mg/kg/d of GAE PPE, the high dose corresponded to an extract dose of 86 mg/kg/d of GAE PPE (see Table 5).
Three weeks before the initiation of the chronic stress protocol, mice were separated into two groups. […]
The unpredictable chronic stress protocol involved exposing animals to a daily stressful situation at an unpredictable moment for 4 weeks (between 8 am and 4 pm, and randomly distributed over the 28 days). […] All animals were weighed and the state of their coat was evaluated on a regular basis (every 3-5 days). […]
Each trial started by introducing the mouse into the maze with the aid of a cup, facing the pool wall, and at one of four possible positions that were randomly balanced between trials and days. The distance between the mouse and the platform was measured at each sampling time, with 25 sampling times collected per second. […]

Row | Compound | immobility / swimming activity in forced swim test [1] | time spent in lit area (risk-taking behavior) [2] | expression of mitochondrial GFP-reporter driven by myo-3 promoter (fluorescence) (C. elegans strain SJ4103) | Morris water maze learning, variability of distance to platform between sequential trials [3]
1 | O=C1O[C@H]2[C@@H]3OC(=O)c4cc(O)c(O)c(O)c4-c4c(O)c(O)c5oc(=O)c6c(c(O)c(O)c7oc(=O)c4c5c76)-c4c(cc(O)c(O)c4O)C(=O)OC[C@H]3OC(O)[C@@H]2OC(=O)c2cc(O)c(O)c(O)c2-c2c1cc(O)c(O)c2O (mixture of isomers) [punicalagin, 2,3 hexahydroxydiphenoyl-4,6-gallagylglucose] | increased swimming activity to levels seen in non-stressed mice | reversed and normalized the excessive risk-taking behavior | – | –
2 | O=c1oc2cc(O)ccc2c2ccc(O)cc12 [urolithin A, 3,8-Dihydroxydibenzo-α-pyrone] | – | – | induced the expression of the mitochondrial GFP-reporter | stabilization of this variability

From patent US11234960B2, “Compositions and methods for improving mitochondrial function and treating neurodegenerative diseases and cognitive disorders” (Amazentis SA, priority 2010, dated 2022)
